From patent US20260183297A1, “SELECTION OF PATIENTS FOR THE TREATMENT OF FADS1-MEDIATED DISEASES OR DISORDERS USING FADS-1 INHIBITORS” (AMGEN INC., priority 2022, published 2026)

Columns and labels:
[1] = Plasma PUFA measurement (LC-MS/MS); assay type: in vivo, mouse; conditions: for FADS1 activity 20:4n-6/20:3n-6 / FADS2 activity 18:3n-6/18:2n-6: DIO mice plasma ratio; for FADS1 activity 20:4n-6/20:3n-6 / FADS2 activity 18:3n-6/18:2n-6 / Adrenic acid 22:4 n-6 / Alpha-Linolenic acid 18:3 n-3 / Arachidonic acid 20:4 n-6 / Dihomo-gamma-Linolenic acid 20:3 n-6 / Docosahexaenoic acid 22:6 n-3 / Eicosapentaenoic acid 20:5 n-3 / Eicosatetraenoic acid 20:4 n-3 / Gamma-Linoleic acid 18:3 n-6 / Linoleic acid 18:2 n-6: mean ± SD; for Adrenic acid 22:4 n-6 / Alpha-Linolenic acid 18:3 n-3 / Arachidonic acid 20:4 n-6 / Dihomo-gamma-Linolenic acid 20:3 n-6 / Docosahexaenoic acid 22:6 n-3 / Eicosapentaenoic acid 20:5 n-3 / Eicosatetraenoic acid 20:4 n-3 / Gamma-Linoleic acid 18:3 n-6 / Linoleic acid 18:2 n-6: DIO mice plasma; for Adrenic acid AdA 22:4 n-6 / Arachidonic acid AA 20:4 n-6 / Decosahexaenoic acid DHA 22:6 n-3 / Dihomo-γ-Linolenic acid DGLA 20:3 n-6 / Eicosapentaenoic acid EPA 20:5 n-3 / Eicosatetraenoic acid ETA 20:4 n-3 / Linoleic acid LA 18:2 n-6 / α-Linolenic acid ALA 18:3 n-3 / γ-Linoleic acid GLA 18:3 n-6: plasma of Compound A-treated mice; for FADS1 activity AA/DGLA 20:4n-6/20:3n-6 / FADS2 activity GLA/LA 18:3n-6/18:2n-6: plasma ratio, Compound A-treated mice
Protocol: Ten microliter of plasma or PUFA standards diluted in surrogate matrix (60 g/l bovine serum albumin in Dulbecco's phosphate-buffered saline [DPBS]) were mixed with 10 μl of ALA-d14 as the internal stand in a 96-well plate. 100 μl of 2N NaOH was added to the mixture for subsequent saponification at 65° C. for 1 hour. The mixture was then acidified with 50 μl of formic acid followed by two consecutive 500 μl hexane extractions. The organic extracts from the two extractions were combined and the solvent was evaporated under nitrogen gas. […] The PUFA peak areas were quantified by using the Analyst software (SCIEX, Framingham, MA).

[2] = Biomarker analysis of tissue and plasma samples (Luminex: adiponectin, leptin, PAI-1, MCP-1); assay type: in vivo, mouse; conditions: DIO mice, 30 mg/kg
Protocol: Frozen liver and adipose tissue samples were powdered with stainless steel Bessman Tissue Pulverizers (Spectrum Laboratory Products, Gardena, CA) per the manufacturer's instructions and the resulting tissue powders were stored in cryotubes at −80° C. until extraction. A portion of each powdered tissue sample was extracted using an in-house protein extraction buffer (50-mM Tris buffer, pH 7.4, 0.1 M NaCl and 0.1% Triton X-100) containing a protease inhibitor cocktail (Millipore Sigma, Burlington, MA). Samples were homogenized with a MagNA Lyser (Roche Diagnostics, Indianapolis, IN) for 30 seconds at 6500 rpm, placed at 4° C. for 30 minutes and then spun in a refrigerated microcentrifuge at 10,000 rpm for 10 minutes. The resulting supernatants were removed to clean 1.5 ml microfuge tubes and spun again at 14,000 rpm for 15 minutes. The final supernatants were aliquoted into labeled cluster tubes and protein concentrations were determined using a standard BCA Protein Assay (Thermo Fisher Scientific, Waltham, MA) prior to storage at −80° C.
Separate aliquots of tissue protein extracts and terminal plasma samples were used to quantify levels of various analytes. Multiple adipokines and hormones (MCP-1, leptin, insulin, and PAI-1) were assessed using a multiplex mouse-specific Luminex assay while adiponectin was evaluated using a single-plex mouse-specific Luminex assay (Millipore Sigma, Burlington, MA). All the commercial assays were performed per the manufacturer's instructions. Data were acquired on a FlexMap 3D (Luminex Corporation, Austin. TX). Tissue protein expression levels were normalized per mg of total protein.

COc1ccn2c(=O)c(-c3cnn(CC(F)(F)C(F)(F)F)c3)c(C(F)(F)F)nc2c1 [Compound A, 8-methoxy-3-(1-(2,2,3,3,3-pentafluoropropyl)-1H-pyrazol-4-yl)-2-(trifluoromethyl)-4H-pyrido[1,2-a]pyrimidin-4-one]
FADS1 activity 20:4n-6/20:3n-6 ([1]; 10 mg kg^−1, 46 or 54 days): 0.06 ± 0.01
FADS2 activity 18:3n-6/18:2n-6 ([1]; 10 mg kg^−1, 46 or 54 days): 0.018 ± 0.002
FADS1 activity 20:4n-6/20:3n-6 ([1]; 30 mg kg^−1, 46 or 54 days): 0.05 ± 0.01
FADS2 activity 18:3n-6/18:2n-6 ([1]; 30 mg kg^−1, 46 or 54 days): 0.014 ± 0.003
Adrenic acid 22:4 n-6 ([1]; 10 mg kg^−1, 46 or 54 days): 1.0 ± 0.1 µg/mL
Alpha-Linolenic acid 18:3 n-3 ([1]; 10 mg kg^−1, 46 or 54 days): 0.9 ± 0.3 µg/mL
Arachidonic acid 20:4 n-6 ([1]; 10 mg kg^−1, 46 or 54 days): 16.1 ± 3.2 µg/mL
Dihomo-gamma-Linolenic acid 20:3 n-6 ([1]; 10 mg kg^−1, 46 or 54 days): 281.3 ± 34.6 µg/mL
Docosahexaenoic acid 22:6 n-3 ([1]; 10 mg kg^−1, 46 or 54 days): 93.5 ± 11.8 µg/mL
Eicosapentaenoic acid 20:5 n-3 ([1]; 10 mg kg^−1, 46 or 54 days): 0.3 ± 0.1 µg/mL
Eicosatetraenoic acid 20:4 n-3 ([1]; 10 mg kg^−1, 46 or 54 days): 2.5 ± 0.5 µg/mL
Gamma-Linoleic acid 18:3 n-6 ([1]; 10 mg kg^−1, 46 or 54 days): 3.4 ± 0.4 µg/mL
Linoleic acid 18:2 n-6 ([1]; 10 mg kg^−1, 46 or 54 days): 198.5 ± 10.5 µg/mL
Adrenic acid 22:4 n-6 ([1]; 30 mg kg^−1, 46 or 54 days): 0.8 ± 0.1 µg/mL
Alpha-Linolenic acid 18:3 n-3 ([1]; 30 mg kg^−1, 46 or 54 days): 0.7 ± 0.2 µg/mL
Arachidonic acid 20:4 n-6 ([1]; 30 mg kg^−1, 46 or 54 days): 12.5 ± 3.0 µg/mL
Dihomo-gamma-Linolenic acid 20:3 n-6 ([1]; 30 mg kg^−1, 46 or 54 days): 242.3 ± 23.4 µg/mL
Docosahexaenoic acid 22:6 n-3 ([1]; 30 mg kg^−1, 46 or 54 days): 78.2 ± 11.6 µg/mL
Eicosapentaenoic acid 20:5 n-3 ([1]; 30 mg kg^−1, 46 or 54 days): 0.3 ± 0.1 µg/mL
Eicosatetraenoic acid 20:4 n-3 ([1]; 30 mg kg^−1, 46 or 54 days): 1.9 ± 0.4 µg/mL
Gamma-Linoleic acid 18:3 n-6 ([1]; 30 mg kg^−1, 46 or 54 days): 2.8 ± 0.5 µg/mL
Linoleic acid 18:2 n-6 ([1]; 30 mg kg^−1, 46 or 54 days): 196.5 ± 24.6 µg/mL
Adrenic acid AdA 22:4 n-6 ([1]; 10 mg/kg): 1.0 ± 0.1 µg/mL
Arachidonic acid AA 20:4 n-6 ([1]; 10 mg/kg): 16.1 ± 3.2 µg/mL
Decosahexaenoic acid DHA 22:6 n-3 ([1]; 10 mg/kg): 93.5 ± 11.8 µg/mL
Dihomo-γ-Linolenic acid DGLA 20:3 n-6 ([1]; 10 mg/kg): 281.3 ± 34.6 µg/mL
Eicosapentaenoic acid EPA 20:5 n-3 ([1]; 10 mg/kg): 0.3 ± 0.1 µg/mL
Eicosatetraenoic acid ETA 20:4 n-3 ([1]; 10 mg/kg): 2.5 ± 0.5 µg/mL
Linoleic acid LA 18:2 n-6 ([1]; 10 mg/kg): 198.5 ± 10.5 µg/mL
α-Linolenic acid ALA 18:3 n-3 ([1]; 10 mg/kg): 0.9 ± 0.3 µg/mL
γ-Linoleic acid GLA 18:3 n-6 ([1]; 10 mg/kg): 3.4 ± 0.4 µg/mL
Adrenic acid AdA 22:4 n-6 ([1]; 30 mg/kg): 0.8 ± 0.1 µg/mL
Arachidonic acid AA 20:4 n-6 ([1]; 30 mg/kg): 12.5 ± 3.0 µg/mL
Decosahexaenoic acid DHA 22:6 n-3 ([1]; 30 mg/kg): 78.2 ± 11.6 µg/mL
Dihomo-γ-Linolenic acid DGLA 20:3 n-6 ([1]; 30 mg/kg): 242.3 ± 23.4 µg/mL
Eicosapentaenoic acid EPA 20:5 n-3 ([1]; 30 mg/kg): 0.3 ± 0.1 µg/mL
Eicosatetraenoic acid ETA 20:4 n-3 ([1]; 30 mg/kg): 1.9 ± 0.4 µg/mL
Linoleic acid LA 18:2 n-6 ([1]; 30 mg/kg): 196.5 ± 24.6 µg/mL
α-Linolenic acid ALA 18:3 n-3 ([1]; 30 mg/kg): 0.7 ± 0.2 µg/mL
γ-Linoleic acid GLA 18:3 n-6 ([1]; 30 mg/kg): 2.8 ± 0.5 µg/mL
FADS1 activity AA/DGLA 20:4n-6/20:3n-6 ([1]; 10 mg/kg): 0.06 ± 0.01
FADS2 activity GLA/LA 18:3n-6/18:2n-6 ([1]; 10 mg/kg): 0.018 ± 0.002
FADS1 activity AA/DGLA 20:4n-6/20:3n-6 ([1]; 30 mg/kg): 0.05 ± 0.01
FADS2 activity GLA/LA 18:3n-6/18:2n-6 ([1]; 30 mg/kg): 0.014 ± 0.003
decrease of AA/DHA ratio ([1]; plasma, Compound A-treated mice (Table 6.1)): five-fold
adiponectin levels ([2]; EPI WAT): elevated
MCP-1 levels ([2]; EPI and ING WAT): trends towards lower
PAI-1 levels ([2]; EPI and ING WAT): trends towards lower
leptin levels ([2]; plasma, EPI and ING WAT): decreased
